ChEMBL document CHEMBL3286252, “Synthesis, biological evaluation and structure-activity relationship of new GABA uptake inhibitors, derivatives of 4-aminobutanamides” (Eur J Med Chem, 2014)
pIC50, pKi: −log10 of the molar value.

Legend:
[1] = Retardation factor of the compound using 25%NH3/MeOH/DCM/PE at ratio of 45:225:600:90 as solvent system by thin layer chromatography; type: physicochemical
[2] = target: T1, Sodium- and chloride-dependent GABA transporter 1 (Mus musculus, UniProt P31648); assay: Inhibition of mouse GAT1 expressed in HEK293 cells assessed as decrease in [3H]GABA uptake; type: cell-based
GABA transporter 2 = target: T2, GABA transporter 2 (Mus musculus, UniProt P31651); assay: Inhibition of mouse GAT2 expressed in HEK293 cells assessed as decrease in [3H]GABA uptake; type: cell-based
T2 sequence (P31651 whole entry): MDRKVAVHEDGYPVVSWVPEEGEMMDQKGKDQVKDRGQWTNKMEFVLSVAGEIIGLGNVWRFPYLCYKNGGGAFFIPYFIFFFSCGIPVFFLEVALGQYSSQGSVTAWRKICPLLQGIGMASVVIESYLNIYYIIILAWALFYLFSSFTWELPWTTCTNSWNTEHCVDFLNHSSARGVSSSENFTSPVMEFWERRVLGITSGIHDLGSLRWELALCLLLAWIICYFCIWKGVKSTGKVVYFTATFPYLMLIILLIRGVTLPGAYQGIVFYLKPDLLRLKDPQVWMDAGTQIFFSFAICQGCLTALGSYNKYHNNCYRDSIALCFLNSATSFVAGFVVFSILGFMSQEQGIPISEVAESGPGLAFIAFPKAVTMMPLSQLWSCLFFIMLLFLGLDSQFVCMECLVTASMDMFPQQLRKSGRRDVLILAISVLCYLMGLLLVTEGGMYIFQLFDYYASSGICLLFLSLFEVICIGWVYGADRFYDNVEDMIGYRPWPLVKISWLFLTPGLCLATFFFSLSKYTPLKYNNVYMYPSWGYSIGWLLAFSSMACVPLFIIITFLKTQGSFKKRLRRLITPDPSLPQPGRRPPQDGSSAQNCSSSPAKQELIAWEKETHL

GABA transporter 3 = target: T3, GABA transporter 3 (Mus musculus, UniProt P31649); assay: Inhibition of mouse GAT3 expressed in HEK293 cells assessed as decrease in [3H]GABA uptake; type: cell-based
T3 sequence (P31649 whole entry): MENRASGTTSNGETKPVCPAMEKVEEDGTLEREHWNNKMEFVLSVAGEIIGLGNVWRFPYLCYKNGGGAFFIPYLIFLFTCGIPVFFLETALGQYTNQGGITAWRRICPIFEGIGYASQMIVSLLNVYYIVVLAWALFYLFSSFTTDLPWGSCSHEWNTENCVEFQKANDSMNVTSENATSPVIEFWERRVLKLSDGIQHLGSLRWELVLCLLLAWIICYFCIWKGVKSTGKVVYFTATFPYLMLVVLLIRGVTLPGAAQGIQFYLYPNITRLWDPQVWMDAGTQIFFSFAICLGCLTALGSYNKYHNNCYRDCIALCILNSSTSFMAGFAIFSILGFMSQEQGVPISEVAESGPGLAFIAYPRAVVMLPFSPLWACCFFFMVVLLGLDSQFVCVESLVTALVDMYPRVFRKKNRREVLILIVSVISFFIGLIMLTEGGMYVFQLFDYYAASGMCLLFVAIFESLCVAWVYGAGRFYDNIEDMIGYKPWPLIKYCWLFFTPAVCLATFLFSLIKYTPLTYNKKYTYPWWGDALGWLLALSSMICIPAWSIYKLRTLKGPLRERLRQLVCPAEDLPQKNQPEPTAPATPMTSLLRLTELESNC

GABA transporter 4 = target: T4, GABA transporter 4 (Mus musculus, UniProt P31650); assay: Inhibition of mouse GAT4 expressed in HEK293 cells assessed as decrease in [3H]GABA uptake; type: cell-based
T4 sequence (P31650 whole entry): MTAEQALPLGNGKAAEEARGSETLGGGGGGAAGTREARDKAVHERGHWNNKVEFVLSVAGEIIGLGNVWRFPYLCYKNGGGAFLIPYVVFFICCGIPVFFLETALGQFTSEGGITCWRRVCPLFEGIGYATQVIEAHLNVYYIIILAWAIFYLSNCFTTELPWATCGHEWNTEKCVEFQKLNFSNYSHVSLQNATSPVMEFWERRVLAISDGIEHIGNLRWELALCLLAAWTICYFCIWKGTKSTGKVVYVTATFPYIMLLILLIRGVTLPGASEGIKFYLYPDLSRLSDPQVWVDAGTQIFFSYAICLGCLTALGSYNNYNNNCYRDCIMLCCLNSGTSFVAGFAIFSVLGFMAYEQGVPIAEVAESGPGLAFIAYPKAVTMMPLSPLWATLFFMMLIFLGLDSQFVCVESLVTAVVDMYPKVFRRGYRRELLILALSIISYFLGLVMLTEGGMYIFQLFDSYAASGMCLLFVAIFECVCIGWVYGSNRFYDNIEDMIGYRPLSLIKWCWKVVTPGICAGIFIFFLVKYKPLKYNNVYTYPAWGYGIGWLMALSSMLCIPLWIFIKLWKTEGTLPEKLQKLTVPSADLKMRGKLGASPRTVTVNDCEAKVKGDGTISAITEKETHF

[3] = target: T1, Sodium- and chloride-dependent GABA transporter 1; assay: Displacement of NO711 from mouse GAT1 expressed in HEK293 cells by LC-MS/MS analysis; type: cell-based
[4] = Retardation factor of the compound using hexane/ethanol/TEA at ratio of 7:2:1 as solvent system by thin layer chromatography; type: physicochemical
[5] = target: Sodium- and chloride-dependent GABA transporter 1 (Mus musculus) (UniProt P31648); assay: Displacement of NO711 from mouse GAT1 expressed in HEK293 cells assessed as NO711 binding at 100 uM by LC-MS/MS analysis; type: cell-based

Compound | Rf [1] | pIC50 [2] | pIC50 (GABA transporter 2) | pIC50 (GABA transporter 3) | pIC50 (GABA transporter 4) | pKi [3] | Rf [4] | Activity [5] [%]
NCCC(C(=O)NCc1ccc(Cl)cc1)N1CCC(C(c2ccccc2)c2ccccc2)CC1 (stereo not drawn) | 0.77 | 4.95 | 5.01 | 5.02 | 4.99 | 4.52 | – | –
Cc1ccc(CNC(=O)C(CCN)NCCC=C(c2ccccc2)c2ccccc2)cc1 (stereo not drawn) | – | 4.71 | 5.05 | 4.53 | 4.82 | 4.96 | 0.16 | –
CN(CCC=C(c1ccccc1)c1ccccc1)C(CCN)C(=O)NCc1ccc(Cl)cc1 (stereo not drawn) | 0.73 | 4.89 | 5.01 | 4.95 | 4.90 | 4.95 | – | –
CN(CCC=C(c1ccccc1)c1ccccc1)C(CCN)C(=O)NCc1ccccc1 (stereo not drawn) | 0.74 | 4.73 | 4.92 | 4.62 | 4.80 | 4.90 | – | –
NCCC(NCCC=C(c1ccccc1)c1ccccc1)C(=O)NCc1ccccc1Cl (stereo not drawn) | – | 4.80 | 5.16 | 4.62 | 4.99 | – | 0.15 | 53
NCCC(C(=O)NCc1ccc(Cl)cc1)N1CCC(=C(c2ccccc2)c2ccccc2)CC1 (stereo not drawn) | 0.8 | 4.96 | 4.98 | 4.89 | 4.92 | 4.62 | – | –
NCCC(C(=O)NCc1ccccc1)N1CCN(C(c2ccccc2)c2ccccc2)CC1 (stereo not drawn) | 0.15 | 4.35 | 4.42 | 4.57 | 4.23 | – | – | 83
Cc1ccc(CNC(=O)C(CCN)N2CCC(C(c3ccccc3)c3ccccc3)CC2)cc1 (stereo not drawn) | 0.92 | 4.88 | 5.10 | 4.84 | 5.13 | 4.78 | – | –
CN(CCC=C(c1ccccc1)c1ccccc1)C(CCN)C(=O)NCc1ccccc1Cl (stereo not drawn) | 0.76 | 4.89 | 5.19 | 5.00 | 5.04 | 4.96 | – | –
CN(CCCC(c1ccccc1)c1ccccc1)C(CCN)C(=O)NCc1ccccc1Cl (stereo not drawn) | – | 4.90 | 5.11 | 4.72 | 4.94 | 4.67 | 0.15 | –
Cc1ccc(CNC(=O)C(CCN)N2CCN(C(c3ccccc3)c3ccccc3)CC2)cc1 (stereo not drawn) | 0.18 | 4.55 | 4.52 | 4.74 | 4.63 | 4.20 | – | –
NCCC(C(=O)NCc1ccccc1Cl)N1CCC(C(c2ccccc2)c2ccccc2)CC1 (stereo not drawn) | 0.79 | 4.86 | 5.23 | 4.96 | 4.99 | 4.59 | – | –
NCCC(C(=O)NCc1ccccc1Cl)N1CCC(=C(c2ccccc2)c2ccccc2)CC1 (stereo not drawn) | 0.78 | 4.87 | 4.99 | 4.81 | 4.96 | 4.98 | – | –
CN(CCCC(c1ccccc1)c1ccccc1)C(CCN)C(=O)NCc1ccc(F)cc1 (stereo not drawn) | – | 4.78 | 4.94 | 4.57 | 4.87 | 4.67 | 0.22 | –
Cc1ccc(CNC(=O)C(CCN)N(C)CCCC(c2ccccc2)c2ccccc2)cc1 (stereo not drawn) | – | 4.91 | 4.85 | 4.64 | 5.08 | 4.81 | 0.17 | –
CN(CCC=C(c1ccccc1)c1ccccc1)C(CCN)C(=O)NCc1ccc(F)cc1 (stereo not drawn) | 0.79 | 4.86 | 4.89 | 4.96 | 4.90 | 4.80 | – | –
Cc1ccc(CNC(=O)C(CCN)N(C)CCC=C(c2ccccc2)c2ccccc2)cc1 (stereo not drawn) | 0.84 | 5.07 | 5.02 | 4.92 | 5.01 | 5.04 | – | –
NCCC(NCCC=C(c1ccccc1)c1ccccc1)C(=O)NCc1ccccc1 (stereo not drawn) | – | 4.51 | 5.10 | 4.48 | 4.59 | 4.76 | 0.16 | –
NCCC(C(=O)NCc1ccc(F)cc1)N1CCN(C(c2ccccc2)c2ccccc2)CC1 (stereo not drawn) | 0.12 | 4.63 | 4.51 | 4.47 | 4.43 | 4.18 | – | –
NCCC(NCCC=C(c1ccccc1)c1ccccc1)C(=O)NCc1ccc(Cl)cc1 (stereo not drawn) | – | 4.78 | 5.02 | 4.75 | 4.93 | 4.79 | 0.14 | –
NCCC(C(=O)NCc1ccc(F)cc1)N1CCC(=C(c2ccccc2)c2ccccc2)CC1 (stereo not drawn) | 0.77 | 4.96 | 4.99 | 4.91 | 4.87 | 4.60 | – | –
CN(CCCC(c1ccccc1)c1ccccc1)C(CCN)C(=O)NCc1ccc(Cl)cc1 (stereo not drawn) | – | 4.76 | 4.76 | 4.67 | 4.84 | 4.75 | 0.1 | –
NCCC(NCCC=C(c1ccccc1)c1ccccc1)C(=O)NCc1ccc(F)cc1 (stereo not drawn) | – | 4.56 | 4.92 | 4.61 | 4.50 | 4.64 | 0.15 | –
NCCC(C(=O)NCc1ccc(F)cc1)N1CCC(C(c2ccccc2)c2ccccc2)CC1 (stereo not drawn) | 0.9 | 4.80 | 5.03 | 4.67 | 5.07 | 4.47 | – | –
NCCC(C(=O)NCc1ccccc1)N1CCC(C(c2ccccc2)c2ccccc2)CC1 (stereo not drawn) | 0.92 | 4.71 | 4.92 | 4.69 | 4.70 | 4.49 | – | –
CN(CCCC(c1ccccc1)c1ccccc1)C(CCN)C(=O)NCc1ccccc1 (stereo not drawn) | – | 4.65 | 5.02 | 4.53 | 4.59 | 4.51 | 0.12 | –
Cc1ccc(CNC(=O)C(CCN)N2CCC(=C(c3ccccc3)c3ccccc3)CC2)cc1 (stereo not drawn) | 0.73 | 4.95 | 5.23 | 4.79 | 4.94 | 4.53 | – | –
NCCC(C(=O)NCc1ccccc1)N1CCC(=C(c2ccccc2)c2ccccc2)CC1 (stereo not drawn) | 0.74 | 4.96 | 4.81 | 4.86 | 4.92 | 4.78 | – | –
